Calls of active or inactive are those of the source. How the calls were made is not given here.
Tested on: L. donovani-infected THP-1 macrophages, intracellular amastigote imaging
Test: intracellular L. donovani amastigote inhibition, imaging, THP-1 host macrophages, host toxicity (AID 1159564)
[1] = measured here: THP-1 host cell toxicity
[2] = measured here: amastigotes per macrophage

Compound | IC50 | IC50 [1] | IC50 [2]
C=CCn1nc([N+](=O)[O-])nc1Oc1ccc(Cl)cc1Cl | > 50 µM (inactive) | 40 µM | 40 µM
Clc1cc(Br)ccc1OCCCCn1ccnc1 | 25 µM | 32 µM | 6.3 µM
COc1ccc(CNc2cc(C3CC3)nc(-c3nccn3C)n2)cc1 | 0.79 µM | 13 µM | 0.79 µM
NC(=O)c1cc(F)ccc1Nc1nc(NC2CCC(O)CC2)ncc1Br (configuration not stated) | 0.79 µM | 0.4 µM | 0.63 µM
CN(Cc1nnnn1C1CCN(Cc2ccc(-n3ccnc3)cc2)CC1)c1ccc(F)cc1F | > 50 µM (inactive) | > 50 µM | 16 µM
CCCCc1cc(Nc2cc(C3CCC3)[nH]n2)nc(N2CCC2C(N)=O)n1 (configuration not stated) | 2 µM | 1 µM | 0.63 µM
COc1ccc(C2C3CCCCC3(O)CCN2CC(=O)Nc2ccc(Cl)cc2Cl)cc1 (configuration not stated) | 2.5 µM | > 50 µM | 0.79 µM
CN(C)CCN(C)Cc1ccc(Cl)cc1NS(=O)(=O)c1ccc(Cl)c(Cl)c1 | 6.3 µM | 32 µM | 4 µM
O=c1ccc2ccc(F)c3c2n1C[C@H]3CN1CCN(CC(O)c2cc3c(cn2)OCS3)CC1 (some centres not stated) | > 50 µM (inactive) | > 50 µM | > 50 µM
OCCCNc1nc(Nc2ccncc2)nc2ccccc12 | > 50 µM (inactive) | > 50 µM | > 50 µM
CS(=O)(=O)c1ccccc1C(=O)N(Cc1ccccc1)c1ccccc1 | > 50 µM (inactive) | > 50 µM | 16 µM
O=C(c1cccc(Nc2ncc(-c3ccc4c(c3)OCO4)cn2)c1)N1CCOCC1 | 4 µM | 63 µM | 1.6 µM
N#Cc1cnc(Nc2cccc(CCN3CCOCC3)c2)nc1Nc1ccccc1C(N)=O | 1.6 µM | 0.79 µM | 1 µM
CC(C)n1c(-c2nonc2N)nc2cccc(OCCN3CCCC3)c21 | 32 µM | 32 µM | 20 µM
CCOC(=O)c1cn[nH]c1S(=O)(=O)N1CCC1c1ccccc1 (configuration not stated) | > 50 µM (inactive) | > 50 µM | > 50 µM
O=C(NCc1nnc2n1CCCCC2)c1csc(-c2ccccc2)n1 | > 50 µM (inactive) | > 50 µM | > 50 µM
Cc1ccc(NC(=O)C(C)n2nc([N+](=O)[O-])c(Br)c2C)cc1Cl (configuration not stated) | > 50 µM (inactive) | > 50 µM | > 50 µM

Compound | IC50 | IC50 [1] | IC50 [2]
O=C(Nc1nc2cc(Cl)ccc2o1)c1cccc(Cl)c1 | > 50 µM (inactive) | 6.3 µM | > 50 µM
NC(=O)c1cc(F)ccc1Nc1nc(NC2CCC(O)CC2)ncc1Cl (configuration not stated) | 1.3 µM | 0.63 µM | 0.79 µM
Cc1ccc(Nc2nc(-c3ccccn3)cc(N3CCCC(O)C3)n2)cc1 (configuration not stated) | 0.79 µM | 25 µM | 0.5 µM
Cc1ccc(S(=O)(=O)Cn2nnnc2C(c2cccnc2)N2CCN(c3ccccc3)CC2)cc1 (configuration not stated) | > 50 µM (inactive) | > 50 µM | > 50 µM
O=C(Nc1n[nH]c(-c2ccccn2)n1)C1CC1c1ccccc1 (configuration not stated) | 7.9 µM | 20 µM | 7.9 µM
O=C(NC(CO)c1ccc(F)cc1)c1ccc(-c2c[nH]c3ncccc23)s1 (configuration not stated) | 25 µM | 10 µM | 20 µM
Cc1c(Nc2cc(C3CC3)[nH]n2)ccc(C#N)c1Cl | 40 µM | 25 µM | 25 µM
Cc1cc(=O)n2nc(Oc3ccc(C#N)cc3Cl)sc2n1 | 32 µM | 32 µM | 32 µM
O=C1CN(C(=O)c2cccc(Nc3ncc(-c4ccc5c(c4)OCO5)cn3)c2)CCN1 | 5 µM | 63 µM | 2 µM
COc1ccc(OC)c2c(=O)c(Cc3ccccc3)c(C)[nH]c12 | 4 µM | > 50 µM | 2.5 µM
CC1CCCCN1C(=O)NCCc1coc(-c2ccc(F)cc2)n1 (configuration not stated) | > 50 µM (inactive) | > 50 µM | > 50 µM
COc1ccccc1C=CCN1C[C@H]2CCC[C@@H](C1)C2(O)c1cccnc1 (some centres not stated) | > 50 µM (inactive) | 40 µM | 32 µM
COc1ccc(C2CC(c3ccccc3Cl)=NN2C(=O)CNC(=O)C2CCC2)cc1 (configuration not stated) | > 50 µM (inactive) | > 50 µM | > 50 µM
CCN(CC)c1nc(N(C)C)nc2c1CN(Cc1ccccc1)CC2 | 6.3 µM | 40 µM | 4 µM
O=C(CSc1nnc(-c2ccc3c(c2)OCO3)o1)N(Cc1ccco1)CC(F)(F)F | 7.9 µM | > 50 µM | 3.2 µM
Cc1nn(-c2nc3ccccc3[nH]2)c2c1C(c1ccc(O)cc1)CC(=O)N2 (configuration not stated) | 1 µM | 6.3 µM | 0.5 µM
CCc1ccccc1[C@@H](C)NC(=O)c1cnc2c(cnn2CC)c1NC1CCN(C(N)=O)CC1 | > 50 µM (inactive) | > 50 µM | > 50 µM

Reference: PubChem BioAssay AID1159564 (GlaxoSmithKline (GSK), 2015)
